ChEMBL document CHEMBL1201862, “PubChem BioAssay data set” (2004)
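Method: 48-hour compound exposure of cells in 96-well plates, five concentrations, linear interpolation of endpoints. GI50 is the concentration that inhibits growth by half.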 Calls of active or inactive are those of the source. Cut-off read from the data, not from the text of the source: active = GI50 up to about 1.1 µM and inactive = higher.

Key:
Assay in all cases: NCI tumour cell line growth inhibition, 48 h
OVCAR-4 = system: OVCAR-4
OVCAR-8 = system: OVCAR-8
NCI-H522 = system: NCI-H522
LOX IMVI = system: LOX IMVI
NCI-H460 = system: NCI-H460
Malme-3M = system: Malme-3M
NCI-H226 = system: NCI-H226
SK-MEL-5 = system: SK-MEL-5
K562 = system: K562
SK-MEL-28 = system: SK-MEL-28
OVCAR-3 = system: OVCAR-3
NCI/ADR-RES = system: NCI/ADR-RES
RXF 393 = system: RXF 393
EKVX = system: EKVX
A549 = system: A549
IGROV-1 = system: IGROV-1
SW-620 = system: SW-620
UO-31 = system: UO-31
DU-145 = system: DU-145
BT-549 = system: BT-549

SMILES	GI50 (OVCAR-4)	GI50 (OVCAR-8)	GI50 (NCI-H522)	GI50 (LOX IMVI)	GI50 (NCI-H460)	GI50 (Malme-3M)	GI50 (NCI-H226)	GI50 (SK-MEL-5)	GI50 (K562)	GI50 (SK-MEL-28)	GI50 (OVCAR-3)	GI50 (NCI/ADR-RES)	GI50 (RXF 393)	GI50 (EKVX)	GI50 (A549)	GI50 (IGROV-1)	GI50 (SW-620)	GI50 (UO-31)	GI50 (DU-145)	GI50 (BT-549)
COC(=O)[C@H](Cc1ccc(OC(C)(C)C)cc1)N[C@H](C)C(=O)N[C@@H](Cc1ccccc1)C(=O)OCc1ccccc1	> 100 µM (inactive)	52.2 µM (inactive)	> 100 µM (inactive)	34.4 µM (inactive)	> 100 µM (inactive)	> 100 µM (inactive)	25.8 µM (inactive)	> 100 µM (inactive)	25.6 µM (inactive)	> 100 µM (inactive)	86.3 µM (inactive)	> 100 µM (inactive)	> 100 µM (inactive)	> 100 µM (inactive)	46.6 µM (inactive)	> 100 µM (inactive)	> 100 µM (inactive)	14.8 µM (inactive)	> 100 µM (inactive)	
O=C(Cn1c2c(c3ccccc31)CCCC2)NC1CCCCC1	94.2 µM (inactive)	> 100 µM (inactive)		68.5 µM (inactive)	> 100 µM (inactive)	> 100 µM (inactive)		> 100 µM (inactive)	> 100 µM (inactive)	63 µM (inactive)	96.4 µM (inactive)	> 100 µM (inactive)		> 100 µM (inactive)	> 100 µM (inactive)	22.5 µM (inactive)	> 100 µM (inactive)	> 100 µM (inactive)		> 100 µM (inactive)
CCOc1cn(C2CC(O)C(CO)O2)c(=O)[nH]c1=O (stereo not drawn)	> 100 µM (inactive)			> 100 µM (inactive)	> 100 µM (inactive)	> 100 µM (inactive)	> 100 µM (inactive)	> 100 µM (inactive)		> 100 µM (inactive)	> 100 µM (inactive)	> 100 µM (inactive)	> 100 µM (inactive)	> 100 µM (inactive)	> 100 µM (inactive)	> 100 µM (inactive)	> 100 µM (inactive)	> 100 µM (inactive)	> 100 µM (inactive)	> 100 µM (inactive)
Cc1nnc(Nc2ccccc2)o1	> 100 µM (inactive)	> 100 µM (inactive)	> 100 µM (inactive)	> 100 µM (inactive)		> 100 µM (inactive)	> 100 µM (inactive)	> 100 µM (inactive)	> 100 µM (inactive)	> 100 µM (inactive)	> 100 µM (inactive)	> 100 µM (inactive)	> 100 µM (inactive)	> 100 µM (inactive)	> 100 µM (inactive)		> 100 µM (inactive)	> 100 µM (inactive)	> 100 µM (inactive)	
Cc1ccc(C(=O)OC(C)C)cc1/N=N/N(C)C	> 75.2 µM (inactive)	> 100 µM (inactive)	31.1 µM (inactive)	> 70 µM (inactive)	> 100 µM (inactive)	> 100 µM (inactive)		> 64.9 µM (inactive)	> 100 µM (inactive)	> 100 µM (inactive)	46 µM (inactive)	98.4 µM (inactive)		> 100 µM (inactive)	> 100 µM (inactive)	> 100 µM (inactive)	> 100 µM (inactive)	70 µM (inactive)	> 100 µM (inactive)	> 100 µM (inactive)
CC(=O)NC1(C)C(C)C2CC1C(C)C2(C)C (stereo not drawn)	> 100 µM (inactive)	> 100 µM (inactive)	> 100 µM (inactive)		> 100 µM (inactive)	> 100 µM (inactive)	> 100 µM (inactive)	> 100 µM (inactive)	> 100 µM (inactive)	> 100 µM (inactive)	> 100 µM (inactive)		> 100 µM (inactive)	> 100 µM (inactive)	> 100 µM (inactive)	> 100 µM (inactive)	> 100 µM (inactive)	> 100 µM (inactive)	> 100 µM (inactive)	> 100 µM (inactive)
Cc1ccc(/N=N/c2c(C)c(C#N)c(=S)n(C3OC(CO)C(O)C(O)C3O)c2C)cc1 (stereo not drawn)	34.4 µM (inactive)			18.2 µM (inactive)	23.7 µM (inactive)	21.7 µM (inactive)		17.4 µM (inactive)	18.4 µM (inactive)	22.1 µM (inactive)	29.6 µM (inactive)	30.5 µM (inactive)	26.1 µM (inactive)		40.6 µM (inactive)	38.9 µM (inactive)	16 µM (inactive)	37.5 µM (inactive)	53.1 µM (inactive)	26.2 µM (inactive)
CC(C)(C)C(=O)CC(=O)C(F)(F)C(F)(F)C(F)(F)F	13.2 µM (inactive)	20.7 µM (inactive)		0.362 µM (active)	12.9 µM (inactive)	22.1 µM (inactive)	27.8 µM (inactive)	7.19 µM (inactive)	15.8 µM (inactive)	14.1 µM (inactive)	14.1 µM (inactive)	18.6 µM (inactive)	17.3 µM (inactive)	15.2 µM (inactive)	22.3 µM (inactive)	11.9 µM (inactive)	18.8 µM (inactive)	20 µM (inactive)	36.1 µM (inactive)	
O=C1CCC2(CC1CC[S+]([O-])c1ccccc1)OCCO2 (stereo not drawn)	> 100 µM (inactive)	> 100 µM (inactive)	> 100 µM (inactive)	> 100 µM (inactive)	> 100 µM (inactive)	> 100 µM (inactive)	> 100 µM (inactive)	> 100 µM (inactive)	> 100 µM (inactive)	> 100 µM (inactive)	> 100 µM (inactive)	> 100 µM (inactive)	> 100 µM (inactive)	> 100 µM (inactive)	> 100 µM (inactive)	> 100 µM (inactive)	> 100 µM (inactive)	> 100 µM (inactive)	> 100 µM (inactive)	
O=C1c2c(ccc3c2CCC3)CC12Cc1ccccc1C2	31.2 µM (inactive)	20.5 µM (inactive)	11.6 µM (inactive)	12.7 µM (inactive)	7.03 µM (inactive)	18.9 µM (inactive)	18 µM (inactive)	10.9 µM (inactive)	20.5 µM (inactive)	25 µM (inactive)	17.7 µM (inactive)	28.4 µM (inactive)	11.5 µM (inactive)	22.5 µM (inactive)	22.3 µM (inactive)	29 µM (inactive)	8.41 µM (inactive)	5.27 µM (inactive)	17.7 µM (inactive)	
NC(=O)C(=CN1C(=O)CC(=O)NC1=S)C(N)=O	> 100 µM (inactive)	> 100 µM (inactive)		> 100 µM (inactive)	> 100 µM (inactive)		> 100 µM (inactive)	> 100 µM (inactive)		> 100 µM (inactive)	> 100 µM (inactive)	> 100 µM (inactive)	> 100 µM (inactive)	> 100 µM (inactive)	> 100 µM (inactive)	> 100 µM (inactive)	> 100 µM (inactive)	> 100 µM (inactive)	> 100 µM (inactive)	> 100 µM (inactive)
COCC(/N=C\N1CCCc2ccccc2[C@@H]1CCCCl)C(C)(C)C (stereo partly drawn)	1.97 µM (inactive)	15.5 µM (inactive)	0.557 µM (active)	8.41 µM (inactive)	35.7 µM (inactive)	0.332 µM (active)	5.28 µM (inactive)	1.31 µM (inactive)	0.512 µM (active)	> 100 µM (inactive)	0.209 µM (active)	0.392 µM (active)	13.1 µM (inactive)	17.5 µM (inactive)	13.4 µM (inactive)	0.353 µM (active)	13 µM (inactive)	12.2 µM (inactive)	> 100 µM (inactive)	
COc1ccc2c(c1O)-c1cc(O)cc3c1[C@@H](C2)N(C)CC3	60.5 µM (inactive)	8.79 µM (inactive)	121 µM (inactive)	56.6 µM (inactive)	74 µM (inactive)	64 µM (inactive)	47 µM (inactive)	62.2 µM (inactive)	67.6 µM (inactive)	80 µM (inactive)	55.8 µM (inactive)	75.9 µM (inactive)	55.7 µM (inactive)	98.4 µM (inactive)	77.1 µM (inactive)	72.8 µM (inactive)	61.8 µM (inactive)	44.2 µM (inactive)		
c1ccc2c(c1)OCCc1cn[nH]c1-2	> 100 µM (inactive)	> 100 µM (inactive)	> 100 µM (inactive)	> 100 µM (inactive)	> 100 µM (inactive)	> 100 µM (inactive)	22.2 µM (inactive)	> 100 µM (inactive)	> 100 µM (inactive)	> 100 µM (inactive)	> 100 µM (inactive)	> 100 µM (inactive)	> 69.2 µM (inactive)	80.5 µM (inactive)	> 100 µM (inactive)	> 100 µM (inactive)	> 100 µM (inactive)	> 100 µM (inactive)		
O=C(Nc1cccc2nsnc12)c1cc2c(cc1Cl)Sc1nccn1S2(=O)=O	3.31 µM (inactive)	2.73 µM (inactive)	8.2 µM (inactive)	8.43 µM (inactive)	2.4 µM (inactive)	74.5 µM (inactive)	25.9 µM (inactive)	17.9 µM (inactive)	3.98 µM (inactive)	3.01 µM (inactive)	1.68 µM (inactive)	17.7 µM (inactive)	4.6 µM (inactive)	5.22 µM (inactive)	17.3 µM (inactive)	11.5 µM (inactive)	10.5 µM (inactive)	2.07 µM (inactive)		15.1 µM (inactive)
